# Measured values reported in PubChem BioAssay (NCI).
#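 Five compound concentrations were applied to cells in 96-well plates for 48 hours; endpoints were derived by simple linear interpolation of the resulting dose-response curve. GI50: concentration for 50% inhibition of growth. TGI: total growth inhibition.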
# Tests used:
# Assay in all cases: inhibition of tumour cell growth, NCI panel, 48 h
# [1] = test system: RXF 393 renal
# [2] = test system: HCT-116 colon
# [3] = test system: MOLT-4 leukemia
# [4] = test system: OVCAR-4 ovarian
# [5] = test system: SN12C renal
# [6] = test system: NCI-H23 lung
# [7] = test system: TK-10 renal
# [8] = test system: MCF7 breast
# [9] = test system: COLO 205 colon
# [10] = test system: SNB-19 CNS
# [11] = test system: HS 578T breast
# [12] = test system: K-562 leukemia
# [13] = test system: U251 CNS
# [14] = test system: UACC-62 melanoma
# [15] = test system: UACC-257 melanoma
# [16] = test system: CCRF-CEM leukemia
# [17] = test system: EKVX NSCLC
# [18] = test system: HT29 colon
# [19] = test system: SF-268 CNS
# [20] = test system: A549 NSCLC
# [21] = test system: BT-549 breast
# [22] = test system: SF-295 CNS
# [23] = test system: M14 melanoma
# [24] = test system: HCC-2998 colon
# [25] = test system: KM12 colon
# [26] = test system: SK-MEL-28 melanoma
# [27] = test system: OVCAR-8 ovarian
# [28] = test system: SK-MEL-5 melanoma
# [29] = test system: DU-145 prostate
# [30] = test system: RPMI-8226 leukemia
# [31] = test system: HOP-62 NSCLC
# [32] = test system: NCI-H226 lung
# [33] = test system: NCI-H460 lung
# [34] = test system: SR leukemia
# [35] = test system: NCI/ADR-RES ovarian
# [36] = test system: CAKI-1 renal
# [37] = test system: LOX IMVI melanoma
# [38] = test system: IGROV1 ovarian
# [39] = test system: OVCAR-3 ovarian
# [40] = test system: UO-31 renal
# [41] = test system: 786-0 renal
# [42] = test system: T-47D breast
# [43] = test system: SF-539 CNS
# [44] = test system: A498 renal
# [45] = test system: SK-OV-3 ovarian
# [46] = test system: HCT-15 colon
# [47] = test system: SNB-75 CNS
# [48] = test system: PC-3 prostate
# [49] = test system: HL-60(TB) leukemia
# [50] = test system: MDA-MB-231 breast
# [51] = test system: SK-MEL-2 melanoma
# [52] = test system: ACHN renal
# [53] = test system: SW-620 colon
# [54] = test system: OVCAR-5 ovarian
# [55] = test system: HOP-92 NSCLC
compound,measurement,setting,value
c1ccc(CC(Cc2ccccc2)C2=NCCCN2)cc1,GI50,[1],2.82 µM
same,TGI,[1],> 100 µM
same,GI50,[2],3.71 µM
same,TGI,[2],17.3 µM
same,GI50,[3],3.56 µM
same,TGI,[3],23.2 µM
same,GI50,[4],3.93 µM
same,TGI,[4],> 100 µM
same,GI50,[5],4.18 µM
same,TGI,[5],> 100 µM
same,GI50,[6],3.48 µM
same,TGI,[6],> 100 µM
same,GI50,[7],7.57 µM
same,TGI,[7],> 100 µM
same,GI50,[8],3.57 µM
same,TGI,[8],> 100 µM
same,GI50,[9],3.49 µM
same,TGI,[9],12.4 µM
same,GI50,[10],3.49 µM
same,TGI,[10],> 100 µM
same,GI50,[11],4.07 µM
same,TGI,[11],> 100 µM
same,GI50,[12],4.04 µM
same,TGI,[12],> 100 µM
same,GI50,[13],3.38 µM
same,TGI,[13],> 100 µM
same,GI50,[14],4.22 µM
same,TGI,[14],> 100 µM
same,GI50,[15],17 µM
same,TGI,[15],> 100 µM
same,GI50,[16],3.12 µM
same,TGI,[16],93.3 µM
same,GI50,[17],6.96 µM
same,TGI,[17],> 100 µM
same,GI50,[18],3.48 µM
same,TGI,[18],> 100 µM
same,GI50,[19],5.25 µM
same,TGI,[19],> 100 µM
same,GI50,[20],3.42 µM
same,TGI,[20],> 100 µM
same,GI50,[21],3.77 µM
same,TGI,[21],70.9 µM
same,GI50,[22],3.32 µM
same,TGI,[22],> 100 µM
same,GI50,[23],3.17 µM
same,TGI,[23],> 100 µM
same,GI50,[24],3.08 µM
same,TGI,[24],9.35 µM
same,GI50,[25],3.26 µM
same,TGI,[25],> 100 µM
same,GI50,[26],6.4 µM
same,TGI,[26],> 100 µM
same,GI50,[27],3.21 µM
same,TGI,[27],> 100 µM
same,GI50,[28],2.73 µM
same,TGI,[28],9.52 µM
same,GI50,[29],3.36 µM
same,TGI,[29],9.75 µM
same,GI50,[30],3.62 µM
same,TGI,[30],42.3 µM
same,GI50,[31],4.83 µM
same,TGI,[31],> 100 µM
same,GI50,[32],2.48 µM
same,TGI,[32],7.47 µM
same,GI50,[33],3.36 µM
same,TGI,[33],21.9 µM
same,GI50,[34],3.78 µM
same,TGI,[34],> 100 µM
same,GI50,[35],2.99 µM
same,TGI,[35],> 100 µM
same,GI50,[36],6.39 µM
same,TGI,[36],> 100 µM
same,GI50,[37],3.71 µM
same,TGI,[37],23.6 µM
same,GI50,[38],4.2 µM
same,TGI,[38],> 100 µM
same,GI50,[39],2.42 µM
same,TGI,[39],4.97 µM
same,GI50,[40],7.83 µM
same,TGI,[40],> 100 µM
same,GI50,[41],4.26 µM
same,TGI,[41],> 100 µM
same,GI50,[42],30.8 µM
same,TGI,[42],> 100 µM
same,GI50,[43],3.37 µM
same,TGI,[43],> 100 µM
same,GI50,[44],1.84 µM
same,TGI,[44],33.2 µM
same,GI50,[45],2.1 µM
same,TGI,[45],6.44 µM
same,GI50,[46],3.44 µM
same,TGI,[46],> 100 µM
same,GI50,[47],7.8 µM
same,TGI,[47],> 100 µM
same,GI50,[48],3.87 µM
same,TGI,[48],> 100 µM
same,GI50,[49],2.38 µM
same,TGI,[49],6.41 µM
same,GI50,[50],5.37 µM
same,TGI,[50],> 100 µM
same,GI50,[51],2.66 µM
same,TGI,[51],7.91 µM
same,GI50,[52],7.95 µM
same,TGI,[52],> 100 µM
same,GI50,[53],3.94 µM
same,TGI,[53],> 100 µM
same,GI50,[54],5.95 µM
same,TGI,[54],> 100 µM
same,GI50,[55],4.52 µM
same,TGI,[55],64.6 µM
